The target of one data set is Syk (Homo sapiens, UniProt P43405). The data set can be described thus: Syk enzyme inhibition (FRET). In kind it is biochemical. The note with it: Table 4a1. In a few lines:
(§1)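 2 hr RT enzyme + cpd (added solns 4/0.4/0.04/0.004 μg/mL); + FRET peptide (8 μM soln) + ATP soln (c-Src 800 μM, Syk 60 μM), 1 hr; protease development 1 hr; read donor/acceptor emission ratio.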

Data set [1] deals with TNFα release, d-U937 cells. The data set can be described thus: LPS-induced TNFα release in d-U937 cells. The note with it: Homo sapiens, dU937; relative to 10 μg/mL BIRB796; Table 4c1; read-out: LPS Induced Release of Cytokine in d-U937 Cells, TNFα REC50. In kind it is cell-based. In a few lines:
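Sandwich ELISA quantifies cytokine in supernatants after 4 hr LPS challenge (0.1 μg/mL) of PMA-differentiated (100 ng/mL, 48–72 hr) U937 macrophages given compound 2 hr beforehand. REC50 derived from concentration-response curve, inhibition calculated relative to vehicle.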

Data set [2] concerns IL-8 release, d-U937 cells. Put plainly: LPS-induced IL-8 release in d-U937 cells. The note with it: Homo sapiens, dU937; Table 4c1; read-out: LPS Induced Release of Cytokine in d-U937 Cells, IL-8 IC50. In kind it is cell-based. In a few lines: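 IL-8 release after a 4 hr challenge with LPS (0.1 μg/mL, E. coli 0111:B4) following a 2 hr compound pretreatment. Cells were human U937 monocytes differentiated to macrophage-type with PMA 100 ng/mL for 48–72 hr. Relative 50% effective concentration derived from concentration–response data.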

In a further data set the test system is d-U937 cells. The data set can be described thus: Cell viability: MTT assay. The note with it: 1 μg/mL. In kind it is cell-based, human. In a few lines: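 MTT reduction (1 h, DMSO solubilisation, A550) measured after compound treatment at 1 or 10 μg/mL of differentiated U937 cells for 4 h (5% FCS RPMI1640) or 24 h (10% FCS). Percentage viability loss computed relative to 0.5% DMSO vehicle, with increases tabulated as negative values.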
On the technique in general: Formazan colour is commonly taken as a measure of viable cells.

The next data set has as its target GSK3α (Homo sapiens, UniProt P49840). The data set can be described thus: GSK 3α enzyme inhibition (FRET), Method 1. In kind it is biochemical. The note with it: Table 4a1. Put shortly: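 GSK3α was preincubated with test compound for 2 hr at RT, then a FRET peptide substrate and ATP were added for 1 hr. Protease development for 1 hr cleaved only non-phosphorylated peptide, and phosphorylation was read as the coumarin/fluorescein emission ratio. Concentrations given are those of the added solutions: enzyme 500 ng/mL, peptide 8 μM, ATP 40 μM.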

In the next data set the target is cSrc (Homo sapiens, UniProt P12931). Put plainly: c-Src enzyme inhibition (FRET). The data set is classed as biochemical. The note with it: Table 4a1. Put shortly:
as §1

Data set [3] deals with ICAM-1 expression, BEAS2B cells. The data set can be described thus: Poly I:C-induced ICAM-1 expression in BEAS2B cells. In kind it is cell-based. The note with it: Homo sapiens, BEAS-2B; read-out: Poly IC induced ICAM1 in BEAS2B, IC50. Put shortly:
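Cell-based ELISA for surface ICAM-1 in human BEAS2B cells 18 h after transfection with the RNA-virus mimic poly I:C (1 μg/mL, with Oligofectamine), compounds added 2 h beforehand. OD450–655 divided by Crystal Violet OD595 per well; percent inhibition relative to vehicle.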

GSK3α, sequence (P49840 whole entry): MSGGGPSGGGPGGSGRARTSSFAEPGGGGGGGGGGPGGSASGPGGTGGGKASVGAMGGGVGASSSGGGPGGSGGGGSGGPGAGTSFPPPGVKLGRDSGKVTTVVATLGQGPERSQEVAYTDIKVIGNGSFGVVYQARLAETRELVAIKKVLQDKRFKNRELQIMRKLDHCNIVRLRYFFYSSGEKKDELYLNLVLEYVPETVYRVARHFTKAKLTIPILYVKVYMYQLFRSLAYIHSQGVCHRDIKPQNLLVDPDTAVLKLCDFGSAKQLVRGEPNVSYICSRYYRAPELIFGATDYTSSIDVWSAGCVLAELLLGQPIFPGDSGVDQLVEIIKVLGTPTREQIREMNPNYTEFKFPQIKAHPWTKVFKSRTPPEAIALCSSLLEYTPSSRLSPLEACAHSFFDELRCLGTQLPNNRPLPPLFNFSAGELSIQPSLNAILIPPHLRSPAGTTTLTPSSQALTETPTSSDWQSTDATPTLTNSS
cSrc, sequence (P12931 whole entry): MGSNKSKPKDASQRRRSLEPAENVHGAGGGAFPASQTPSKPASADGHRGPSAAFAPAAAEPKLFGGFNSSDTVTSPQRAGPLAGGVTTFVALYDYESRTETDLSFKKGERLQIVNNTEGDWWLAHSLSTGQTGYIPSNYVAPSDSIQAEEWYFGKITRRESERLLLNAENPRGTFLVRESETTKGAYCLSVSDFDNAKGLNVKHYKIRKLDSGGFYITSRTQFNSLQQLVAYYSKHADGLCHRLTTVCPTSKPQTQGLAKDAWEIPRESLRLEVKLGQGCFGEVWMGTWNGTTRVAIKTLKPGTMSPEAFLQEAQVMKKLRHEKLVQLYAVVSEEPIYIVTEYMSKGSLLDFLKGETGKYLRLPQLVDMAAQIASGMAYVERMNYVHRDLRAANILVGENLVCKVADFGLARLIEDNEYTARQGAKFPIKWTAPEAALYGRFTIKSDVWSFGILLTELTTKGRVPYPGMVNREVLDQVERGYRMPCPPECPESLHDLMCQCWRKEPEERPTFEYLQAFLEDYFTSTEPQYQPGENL

The term IC50 denotes the concentration at which inhibition is half-maximal. Take `COc1ccc(-n2nc(C(C)C)cc2NC(=O)Nc2ccc(Oc3ccnc(Nc4ccc(C(=O)NCCN5CCOCC5)cc4OC)n3)c3ccccc23)cc1` [Example 38, 4-((4-((4-(3-(3-isopropyl-1-(4-methoxyphenyl)-1H-pyrazol-5-yl)ureido)naphthalen-1-yl)oxy)pyrimidin-2-yl)amino)-3-methoxy-N-(2-morpholinoethyl)benzamide]: the IC50 against Syk was 54 nM; in data set [2], 60.6 nM; on GSK3α, greater than 13000 nM; on cSrc, 9 nM; in data set [3], 35.7 nM. Besides, the EC50 in data set [1] is 20.2 nM. Further, the “Cell viability at time point in d-U937 cells, 4 h” value with d-U937 cells was “−ve (−ve and +ve indicate that the value is below and above respectively, the no significant effect threshold, defined as 30% inhibition at 1 μg/mL at the time point indicated)”. Besides, in the data set on d-U937 cells, the “Cell viability at time point in d-U937 cells, 24 h” value (“Cell viability at time point … 24 h” for short) is “−ve (−ve and +ve indicate that the value is below and above respectively, the no significant effect threshold, defined as 30% inhibition at 1 μg/mL at the time point indicated)”.
As to `COc1cc(C(=O)NCCO)ccc1Nc1nccc(Oc2ccc(NC(=O)Nc3cc(C(C)C)nn3-c3ccc(C)cc3)c3ccccc23)n1` [Example 39, N-(2-hydroxyethyl)-4-((4-((4-(3-(3-isopropyl-1-(p-tolyl)-1H-pyrazol-5-yl)ureido)naphthalen-1-yl)oxy)pyrimidin-2-yl)amino)-3-methoxybenzamide], the IC50 against Syk was 130 nM; in data set [2], 15.7 nM; against GSK3α, greater than 14600 nM; against cSrc it was 8 nM; in data set [3] it was 146 nM. The EC50 in data set [1] is 3.6 nM. The “Cell viability at time point in d-U937 cells, 4 h” value in the data set with d-U937 cells was “−ve (−ve and +ve indicate that the value is below and above respectively, the no significant effect threshold, defined as 30% inhibition at 1 μg/mL at the time point indicated)”. Moreover, the “Cell viability at time point … 24 h” value in the data set with d-U937 cells is “−ve (−ve and +ve indicate that the value is below and above respectively, the no significant effect threshold, defined as 30% inhibition at 1 μg/mL at the time point indicated)”.
Turning to `COc1ccc(-n2nc(C(C)(C)C)cc2NC(=O)Nc2ccc(Oc3ccnc(Nc4cc(OC)cc(C(N)=O)c4)n3)c3ccccc23)cc1` [Example 41, 3-((4-((4-(3-(3-(tert-butyl)-1-(4-methoxyphenyl)-1H-pyrazol-5-yl)ureido)naphthalen-1-yl)oxy)pyrimidin-2-yl)amino)-5-methoxybenzamide], the IC50 at Syk stood at 15 nM; in data set [2], 0.4 nM; on GSK3α, 1200 nM; against cSrc it was 10 nM; in data set [3], 2 nM. The EC50 in data set [1] was 0.4 nM. Besides, the “Cell viability at time point in d-U937 cells, 4 h” value in the data set on d-U937 cells was “−ve (−ve and +ve indicate that the value is below and above respectively, the no significant effect threshold, defined as 30% inhibition at 1 μg/mL at the time point indicated)”. Besides, the “Cell viability at time point … 24 h” value in the data set with d-U937 cells is “−ve (−ve and +ve indicate that the value is below and above respectively, the no significant effect threshold, defined as 30% inhibition at 1 μg/mL at the time point indicated)”.
With `COc1cc(Nc2nccc(Oc3ccc(NC(=O)Nc4cc(C(C)(C)C)nn4-c4ccc(C)cc4)c4ccccc34)n2)cc(C(=O)NCCN(C)C)c1` [Example 43, 3-((4-((4-(3-(3-(tert-butyl)-1-(p-tolyl)-1H-pyrazol-5-yl)ureido)naphthalen-1-yl)oxy)pyrimidin-2-yl)amino)-N-(2-(dimethylamino)ethyl)-5-methoxybenzamide], the IC50 worked out at 7 nM on Syk; 0.6 nM in data set [2]; 197 nM on GSK3α; 2 nM at cSrc; 0.4 nM in data set [3]. In data set [1], the EC50 amounted to 0.2 nM. Further, the “Cell viability at time point in d-U937 cells, 4 h” value with d-U937 cells was “−ve (−ve and +ve indicate that the value is below and above respectively, the no significant effect threshold, defined as 30% inhibition at 1 μg/mL at the time point indicated)”. In the data set with d-U937 cells, the “Cell viability at time point … 24 h” value is “−ve (−ve and +ve indicate that the value is below and above respectively, the no significant effect threshold, defined as 30% inhibition at 1 μg/mL at the time point indicated)”.
For the molecule `COc1ccc(-n2nc(C(C)C)cc2NC(=O)Nc2ccc(Oc3ccnc(Nc4cc(C(=O)NCCN5CCOCC5)cc(C(F)(F)F)c4)n3)c3ccccc23)cc1` [Example 47, 3-((4-((4-(3-(3-isopropyl-1-(4-methoxyphenyl)-1H-pyrazol-5-yl)ureido)naphthalen-1-yl)oxy)pyrimidin-2-yl)amino)-N-(2-morpholinoethyl)-5-(trifluoromethyl)benzamide], the IC50 stood at 12 nM on Syk; 1.4 nM in data set [2]; 2850 nM on GSK3α; 5 nM on cSrc; 3.6 nM in data set [3]. In data set [1], the EC50 worked out at 0.8 nM. Further, the “Cell viability at time point in d-U937 cells, 4 h” value in the data set with d-U937 cells was “−ve (−ve and +ve indicate that the value is below and above respectively, the no significant effect threshold, defined as 30% inhibition at 1 μg/mL at the time point indicated)”. Further, in the data set on d-U937 cells, the “Cell viability at time point … 24 h” value was “−ve (−ve and +ve indicate that the value is below and above respectively, the no significant effect threshold, defined as 30% inhibition at 1 μg/mL at the time point indicated)”.
Regarding `COc1cc(Nc2nccc(Oc3ccc(NC(=O)Nc4cc(C(F)(F)F)nn4-c4ccc(C)cc4)c4ccccc34)n2)cc(C(=O)NCCN2CCOCC2)c1` [Example 48, 3-methoxy-N-(2-morpholinoethyl)-5-((4-((4-(3-(1-(p-tolyl)-3-(trifluoromethyl)-1H-pyrazol-5-yl)ureido)naphthalen-1-yl)oxy)pyrimidin-2-yl)amino)benzamide], the IC50 against Syk was 78 nM; in data set [2], 20.6 nM; on GSK3α, greater than 12800 nM; at cSrc, 5 nM; in data set [3], 32.3 nM. Also, the EC50 in data set [1] is 3.5 nM. Further, the “Cell viability at time point in d-U937 cells, 4 h” value in the data set on d-U937 cells was “−ve (−ve and +ve indicate that the value is below and above respectively, the no significant effect threshold, defined as 30% inhibition at 1 μg/mL at the time point indicated)”. Also, the “Cell viability at time point … 24 h” value in the data set on d-U937 cells was “−ve (−ve and +ve indicate that the value is below and above respectively, the no significant effect threshold, defined as 30% inhibition at 1 μg/mL at the time point indicated)”.
As to `COc1cc(Nc2nccc(Oc3ccc(NC(=O)Nc4cc(C(C)(C)C)nn4-c4ccc(C)cc4)c4ccccc34)n2)cc(C(=O)NCCN2CCOCC2)c1` [Example 52, 3-((4-((4-(3-(3-(tert-butyl)-1-(p-tolyl)-1H-pyrazol-5-yl)ureido)naphthalen-1-yl)oxy)pyrimidin-2-yl)amino)-5-methoxy-N-(2-morpholinoethyl)benzamide], the IC50 is 6 nM against Syk; 1.5 nM in data set [2]; 247 nM against GSK3α; 3 nM against cSrc; 5 nM in data set [3]. Moreover, in data set [1], the EC50 was determined as 0.3 nM. Besides, in the data set with d-U937 cells, the “Cell viability at time point in d-U937 cells, 4 h” value was “−ve (−ve and +ve indicate that the value is below and above respectively, the no significant effect threshold, defined as 30% inhibition at 1 μg/mL at the time point indicated)”. Besides, the “Cell viability at time point … 24 h” value in the data set on d-U937 cells was “−ve (−ve and +ve indicate that the value is below and above respectively, the no significant effect threshold, defined as 30% inhibition at 1 μg/mL at the time point indicated)”.
Take `COCCOc1cccc(-n2nc(C(C)(C)C)cc2NC(=O)Nc2ccc(Oc3ccnc(Nc4cc(OC)cc(C(=O)NCCN5CCOCC5)c4)n3)c3ccccc23)c1` [Example 55, 3-((4-((4-(3-(3-(tert-butyl)-1-(3-(2-methoxyethoxy)phenyl)-1H-pyrazol-5-yl)ureido)naphthalen-1-yl)oxy)pyrimidin-2-yl)amino)-5-methoxy-N-(2-morpholinoethyl)benzamide]: the IC50 at Syk worked out at 4 nM; in data set [2] it was 2.1 nM; at GSK3α, 281 nM; at cSrc it was 3 nM; in data set [3] it was 5.8 nM. The EC50 in data set [1] is 3.3 nM. In the data set on d-U937 cells, the “Cell viability at time point in d-U937 cells, 4 h” value is “−ve (−ve and +ve indicate that the value is below and above respectively, the no significant effect threshold, defined as 30% inhibition at 1 μg/mL at the time point indicated)”. In the data set on d-U937 cells, the “Cell viability at time point … 24 h” value was “−ve (−ve and +ve indicate that the value is below and above respectively, the no significant effect threshold, defined as 30% inhibition at 1 μg/mL at the time point indicated)”.

(Values after patent publication US20140057915A1, “KINASE INHIBITORS” (TOPIVERT PHARMA LIMITED, priority 2012, published 2014).)
